How the values were obtained:
Assay in all cases: relative viability (nuclei count vs DMSO), 5 days (fraction); higher = more cells survive
EHT 1864 + Palbociclib = compound: C1COCCN1CC2=CC(=O)C(=CO2)OCCCCCSC3=C4C=CC(=CC4=NC=C3)C(F)(F)F [EHT 1864] + CC(=O)c1c(C)c2cnc(Nc3ccc(N4CCNCC4)cn3)nc2n(C2CCCC2)c1=O [Palbociclib] (partner 0.5 µM)
Summary of the method: (§1)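 One day after seeding in 1536-well plates, lung cancer cell lines were dosed by pin tool. Dosing was either single-drug or a fixed anchor-drug dose plus five library-drug doses (not always all listed) in √10 steps. After 5 days, nuclei were stained in one fix-and-stain step and counted on 4× images, and relative viability is the nuclei count of treated wells over that of vehicle wells, given as the median of duplicate plates.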

EHT 1864 + Bortezomib = compound: C1COCCN1CC2=CC(=O)C(=CO2)OCCCCCSC3=C4C=CC(=CC4=NC=C3)C(F)(F)F [EHT 1864] + CC(C)C[C@H](NC(=O)[C@H](Cc1ccccc1)NC(=O)c1cnccn1)B(O)O [Bortezomib] (partner 0.002 µM)
Summary of the method: as §1

EHT 1864 + Alpelisib = compound: C1COCCN1CC2=CC(=O)C(=CO2)OCCCCCSC3=C4C=CC(=CC4=NC=C3)C(F)(F)F [EHT 1864] + Cc1nc(NC(=O)N2CCC[C@H]2C(N)=O)sc1-c1ccnc(C(C)(C)C(F)(F)F)c1 [Alpelisib] (partner 2 µM)
Summary of the method: as §1

EHT 1864 + Dasatinib = compound: C1COCCN1CC2=CC(=O)C(=CO2)OCCCCCSC3=C4C=CC(=CC4=NC=C3)C(F)(F)F [EHT 1864] + Cc1nc(Nc2ncc(C(=O)Nc3c(C)cccc3Cl)s2)cc(N2CCN(CCO)CC2)n1 [Dasatinib] (partner 0.075 µM)
Summary of the method: as §1

Cell Line | relative viability (EHT 1864 + Palbociclib; first compound 0.04 µM) | relative viability (EHT 1864 + Palbociclib; first compound 0.4 µM) | relative viability (EHT 1864 + Palbociclib; first compound 1.265 µM) | relative viability (EHT 1864 + Palbociclib; first compound 4 µM) | relative viability (EHT 1864 + Bortezomib; first compound 0.04 µM) | relative viability (EHT 1864 + Bortezomib; first compound 0.1265 µM) | relative viability (EHT 1864 + Bortezomib; first compound 0.4 µM) | relative viability (EHT 1864 + Bortezomib; first compound 1.265 µM) | relative viability (EHT 1864 + Bortezomib; first compound 4 µM) | relative viability (EHT 1864 + Alpelisib; first compound 0.04 µM) | relative viability (EHT 1864 + Alpelisib; first compound 0.1265 µM) | relative viability (EHT 1864 + Alpelisib; first compound 0.4 µM) | relative viability (EHT 1864 + Alpelisib; first compound 1.265 µM) | relative viability (EHT 1864 + Alpelisib; first compound 4 µM) | relative viability (EHT 1864 + Dasatinib; first compound 0.04 µM) | relative viability (EHT 1864 + Dasatinib; first compound 0.1265 µM) | relative viability (EHT 1864 + Dasatinib; first compound 0.4 µM) | relative viability (EHT 1864 + Dasatinib; first compound 1.265 µM) | relative viability (EHT 1864 + Dasatinib; first compound 4 µM) | relative viability (EHT 1864 + Palbociclib; first compound 0.1265 µM)
NCI-H441 | 0.233 | 0.215 | 0.195 | 0.226 | 0.381 | 0.372 | 0.505 | 0.447 | 0.285 | 0.73 | 0.644 | 0.532 | 0.779 | 0.729 | 0.562 | 0.532 | 0.557 | 0.649 | 0.603 | –
NCI-H1944 | 0.327 | 0.353 | 0.311 | 0.332 | – | – | – | – | – | 0.828 | – | 0.805 | 0.803 | 0.984 | 0.238 | – | 0.208 | 0.228 | 0.21 | –
NCI-H23 | 0.559 | 0.531 | 0.546 | 0.492 | 0.879 | – | 0.84 | 0.995 | 0.924 | 0.664 | – | 0.781 | 0.738 | 0.807 | 0.741 | 0.536 | 0.522 | 0.481 | 0.779 | 0.429
HARA | 0.269 | 0.215 | 0.26 | 0.291 | 1.12 | 1.11 | 1.2 | 1.12 | 0.999 | 0.762 | 0.758 | 0.843 | 0.814 | 0.857 | 0.236 | 0.246 | 0.207 | 0.19 | 0.255 | 0.226
NCI-H1792 | 0.618 | 0.683 | 0.626 | 0.742 | 0.859 | 0.877 | 0.926 | 0.866 | 0.919 | 0.664 | 0.584 | 0.627 | 0.72 | 0.792 | 0.755 | 0.778 | 0.714 | 0.73 | 0.894 | 0.694
NCI-H1703 | – | – | – | – | 0.253 | 0.427 | 0.363 | 0.307 | 0.315 | 0.323 | 0.319 | 0.399 | 0.373 | 0.366 | – | – | – | – | – | –
NCI-H2342 | 0.487 | 0.505 | 0.554 | 0.551 | – | – | – | – | – | – | – | – | – | – | 0.317 | 0.307 | 0.315 | 0.309 | 0.306 | 0.485
CAL-12T | 0.409 | 0.459 | 0.518 | 0.443 | 1.03 | 0.815 | 0.928 | 0.965 | 0.981 | 1.23 | 1.14 | 1.08 | 1.25 | 1.05 | 0.54 | 0.38 | 0.409 | 0.353 | 0.483 | 0.357
NCI-H727 | 0.663 | 0.626 | 0.595 | 0.653 | 0.92 | 0.973 | 0.848 | – | 1.12 | 0.623 | 0.593 | 0.524 | – | 0.567 | 0.397 | 0.334 | 0.344 | 0.371 | 0.343 | 0.642
NCI-H2085 | 0.446 | 0.456 | 0.451 | 0.417 | 0.989 | 0.785 | 0.962 | 0.971 | 0.782 | 0.998 | 0.875 | 0.9 | 0.982 | 0.869 | 0.22 | 0.239 | 0.233 | 0.253 | 0.305 | 0.459
NCI-H1395 | 0.61 | 0.631 | 0.57 | 0.614 | – | – | – | – | – | 1.54 | 0.942 | 1.01 | 0.967 | 1.38 | 0.48 | 0.386 | 0.426 | 0.418 | 0.407 | 0.595
NCI-H1648 | 0.261 | 0.269 | 0.258 | 0.278 | – | – | – | – | – | – | – | – | – | – | – | – | – | – | – | –
NCI-H460 | – | 0.16 | 0.16 | 0.173 | 1.01 | 1.1 | 0.993 | 0.994 | 0.905 | 0.427 | 0.57 | 0.475 | 0.444 | 0.486 | 0.516 | 0.405 | 0.565 | 0.532 | 0.54 | 0.155
A549 | – | – | – | – | – | – | – | – | – | 0.637 | 0.735 | 0.694 | 0.805 | 0.712 | – | – | – | – | – | –
IA-LM | – | – | – | – | 0.821 | 0.553 | 0.956 | 0.709 | 0.536 | 0.875 | 0.419 | 0.799 | 0.677 | 0.639 | – | – | – | – | – | –
EKVX | 0.351 | 0.441 | 0.292 | 0.374 | 0.995 | 0.984 | 0.971 | 0.818 | 0.977 | 0.894 | 0.836 | 0.875 | 0.871 | 0.795 | 0.631 | 0.436 | 0.536 | 0.51 | 0.58 | 0.401
ChaGo-K-1 | 0.946 | 0.951 | 0.852 | 0.911 | 0.939 | 1.05 | 0.997 | – | 0.965 | – | – | – | – | – | 0.587 | 0.551 | 0.619 | 0.602 | 0.616 | 0.904
NCI-H1755 | 0.46 | 0.42 | 0.43 | 0.42 | 1.02 | 0.824 | 0.895 | 0.899 | 0.941 | 0.897 | 0.844 | 0.861 | 0.945 | 0.877 | 0.424 | 0.333 | 0.425 | 0.369 | 0.399 | 0.437
NCI-H2228 | 0.881 | 0.642 | – | 0.777 | 0.935 | 1.13 | 0.984 | 0.904 | 1.11 | 0.776 | 0.813 | 0.732 | 0.594 | 0.713 | 0.485 | 0.456 | 0.418 | 0.448 | 0.496 | 0.634
NCI-H2087 | 0.266 | 0.223 | 0.156 | 0.224 | 0.629 | 0.569 | 0.753 | 0.739 | 0.781 | 0.929 | 1 | 0.902 | 1.1 | 0.802 | 0.851 | – | 0.758 | 0.846 | 0.825 | –
